Test results: patent US5468769A, “Paclitaxel derivatives” (Abbott Laboratories, priority 1993, dated 1995)
Converted amounts (≈) assume the structure as drawn. Where two headings read alike, the source gives them in different places.

Assays:
[1] = tested on: HT-29; test: In vitro tumor cell cytotoxicity (MTT colorimetric growth inhibition); format: cell-based; details: Homo sapiens
Method: (§1) The compounds of the present invention were tested for in vitro cytotoxic activity against the tumor lines A549 […], HT-29 […], B16F10 (mouse melanoma) and P-388 (mouse leukemia). Concentrations of 50% growth inhibition (IC50 's) were measured in a colorimetric assay for cytotoxic activity against cultured cells according to the protocol described below:
(§2) A three-day microtiter assay was used to measure the growth inhibition of cultured cells exposed to a range of drug concentrations. Metabolic activity, and thus the continued survival of cells exposed to the test compounds, was measured by the cells' ability to reduce the tetrazolium dye, MTT (3-(4,5-dimethyl-thiazol-2-yl-2,5-diphenyltetrazolium bromide) to a quantifiable colored end product, which absorbs at 570 nm in the visible spectrum.
(§3) Test compounds were dissolved in dimethyl sulfoxide (DMSO) and diluted, first with Earle's Balanced Salt Solution followed by culture medium, to twice the highest concentration of compound to be tested. From this concentrated stock, twofold serial dilutions were prepared in 96-well microtiter trays, each well containing twice the desired final concentration of compound. Each concentration was tested in triplicate and compared to triplicate drug-free controls.
(§4) The cells were grown in the same medium used for diluting the compounds and then harvested using trypsinization. This involved removing the medium by aspiration; rinsing the cell monolayer twice with Earle's Balanced Salt Solution; adding trypsin (0.05%)/EDTA (0.53 mM; for each 25 cm^2, approximately 0.2 mL), tilting to cover the monolayer, and then withdrawing trypsin leaving only a thin film of solution; incubating at room temperature until the cell monolayers detached (as determined by visual and/or microscopic observation); adding medium containing fetal calf serum to stop the action of the trypsin and resuspend the cells; triturating to aid dissociation of cell clumps; and determining the number of cells per milliliter by electronic cell counter (e.g. Coulter Counter) or by mixing an aliquot of cell suspension with Trypan Blue (0.4% in normal saline) and counting the viable cells using a hemacytometer.
(§5) After harvesting and determination of viable cell counts, cell density was adjusted to 25,000 cells/mL. Inoculum (0.1 mL) containing the cells was then added to each well for a final concentration of 2,500 cells per well. Addition of the inoculum diluted the test compounds to the desired final concentration.
(§6) Microtiter trays were then incubated for three days at 36 ° C. in a humidified atmosphere containing 5% carbon dioxide. After three days, 20 microtiters of 5 mg/mL MTT in phosphate-buffered saline solution were added to each well. Trays were returned to the incubator for two to four hours to allow the surviving cells to reduce the dye. Medium and unreduced dye were removed by aspiration. DMSO was added to each well to dissolve the water-insoluble, colored end product of the dye reduction so that it could be measured spectrophotometrically at 570 nm. The IC50 was determined as the concentration of compound tested required to reduce the absorbance at 570 nm to 50% of non-drug treated control values.

[2] = tested on: A549; test: as above; format: cell-based; details: Homo sapiens
Method: as §1, §2, §3, §4, §5, §6

[3] = tested on: advanced breast and ovarian cancers; details: cited from earlier work
[4] = tested on: a number of other tumor types; details: preliminary investigations; cited from earlier work
[5] = tested on: B16F10; test: In vitro tumor cell cytotoxicity (MTT colorimetric growth inhibition); format: cell-based, mouse; details: B16-F10, 72 h
Method: as §1, §2, §3, §4, §5, §6

[6] = tested on: P388; test: as above; format: cell-based, mouse; details: P388, 72 h
Method: as §1, §2, §3, §4, §5, §6

SMILES | IC50 ([1]; HT-29, 72 h) [ng/mL] | IC50 ([2]; A549, 72 h) [ng/mL] | effectiveness in clinical trials [3] | activity against other tumor types [4] | IC50 ([5]; Mus musculus) [ng/mL] | IC50 ([6]; Mus musculus) [ng/mL] | IC50 ([1]; 72 h, HT-29, three-day microtiter assay, MTT, 570 nm, read-out: IC50) [ng/mL] | IC50 ([2]; 72 h, A549, three-day microtiter assay, MTT, 570 nm, read-out: IC50) [ng/mL] | IC50 ([5]; B16F10 (mouse melanoma), three-day microtiter assay, MTT, 570 nm, read-out: IC50) [ng/mL] | IC50 ([6]; P-388 (mouse leukemia), three-day microtiter assay, MTT, 570 nm, read-out: IC50) [ng/mL]
CC(=O)O[C@H]1C(=O)[C@@]2(C)[C@H]([C@H](OC(=O)c3ccccc3)[C@]3(O)C[C@H](OC(=O)[C@H](O)[C@@H](NC(=O)c4ccccc4)c4ccccc4)C(C)=C1C3(C)C)[C@]1(OC(C)=O)CO[C@@H]1C[C@@H]2O [Paclitaxol, Paclitaxel] | 2.5 (≈ 0.00293 µM) | 3.4 (≈ 0.00398 µM) | effective against advanced breast and ovarian cancers | promising activity against a number of other tumor types | 3.1 (≈ 0.00363 µM) | 9.6 (≈ 0.0112 µM) |  |  |  | 
CC(=O)O[C@@H]1C2=C(C)[C@@H](OC(=O)[C@H](O)[C@@H](NC(=O)OC(C)(C)C)c3ccccc3)C[C@@](O)([C@@H](OC(=O)c3ccccc3)[C@@H]3[C@]4(OC(C)=O)CO[C@@H]4C[C@H](C)[C@@]13C=O)C2(C)C [Example 3, 8-tert-Butyloxycarbonylamino-α-hydroxybenzenepropanoic acid 4,9-bis(acetyloxy)-2-benzoyloxy-8-formyl-1.2.3.4.5.6.7.8.10.13.14-undecahydro-1-hydroxy-7.14.14.17-tetramethyl-1.10-methano-20H-cyclonona[2.3]benz[1.2.b]oxet-12-yl ester] |  |  |  |  |  |  | 5.4 (≈ 0.00648 µM) | 9.8 (≈ 0.0118 µM) | 4.6 (≈ 0.00552 µM) | 8.3 (≈ 0.00995 µM)
CC(=O)O[C@@H]1C2=C(C)[C@@H](OC(=O)[C@H](O)[C@@H](NC(=O)c3ccccc3)c3ccccc3)C[C@@](O)([C@@H](OC(=O)c3ccccc3)[C@@H]3[C@]4(OC(C)=O)CO[C@@H]4C[C@H](C)[C@@]13C=O)C2(C)C [Example 4, β-Benzoylamino-α-hydroxybenzenepropanoic acid 4,9-bis(acetyloxy)-2-benzoyloxy-8-formyl-1.2.3.4.5.6.7.8.10.13.14-undecahydro-1-hydroxy-7.14.14.17-tetramethyl-1.10-m,ethano-20H-cyclonona[2.3]benz[1.2-b]oxet-12-yl ester] | 76 (≈ 0.0907 µM) | 17 (≈ 0.0203 µM) |  |  | 45 (≈ 0.0537 µM) | 32 (≈ 0.0382 µM) |  |  |  | 
